Molecular target: T1, trypsin-activated recombinant human renin (Homo sapiens, UniProt P00797)
T1 sequence (P00797 67-406): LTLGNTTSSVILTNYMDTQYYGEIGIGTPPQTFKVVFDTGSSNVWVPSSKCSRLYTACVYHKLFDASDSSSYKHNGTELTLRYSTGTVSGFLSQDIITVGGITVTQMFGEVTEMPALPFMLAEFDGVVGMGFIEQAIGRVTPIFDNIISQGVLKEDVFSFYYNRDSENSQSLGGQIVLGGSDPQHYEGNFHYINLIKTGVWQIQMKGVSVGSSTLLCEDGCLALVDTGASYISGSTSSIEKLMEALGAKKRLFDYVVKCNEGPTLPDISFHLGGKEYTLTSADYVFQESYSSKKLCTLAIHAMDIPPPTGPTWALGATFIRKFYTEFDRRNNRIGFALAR
Assay: Renin fluorescence assay (internally quenched peptide substrate)
Assay type: biochemical
Settings: compounds I*
Method: The sequence of this peptide corresponds to the sequence of human angiotensinogen. The following test protocol can be used. All reactions are carried out in a flat bottom white opaque microtiter plate. A 4 μL aliquot of 400 μM renin substrate (DABCYL-γ-[…]) in 192 μL assay buffer (50 mM BES, 150 mM NaCl, 0.25 mg/mL bovine serum albumin, pH7.0) is added to 4 μL of test compound in DMSO at various concentrations ranging from 10 μM to 1 nM final concentrations. Next, 100 μL of trypsin-activated recombinant human renin (final enzyme concentration of 0.2-2 nM) in assay buffer is added, and the solution is mixed by pipetting. The increase in fluorescence at 495 nm (excitation at 340 nm) is measured for 60-360 minutes at rt using a Perkin-Elmer Fusion microplate reader. The slope of a linear portion of the plot of fluorescence-increase as a function of time is then determined, and the rate is used for calculating percent inhibition in relation to uninhibited control. […] (Wang G. T. et al. Anal. Biochem. 1993, 210, 351; Nakamura, N. et al. J. Biochem. (Tokyo) 1991, 109, 741; Murakami, K. et al. Anal Biochem. 1981, 110, 232).

| Structure (SMILES) | IC50 [nM] |
| --- | --- |
| CNC[C@H](CC1CCCOCC1)NC(=O)N1CCC[C@@H]([C@@H](OCCNC(=O)OC)c2cccc(Cl)c2F)C1 (stereo partly drawn) [I*-137a, methyl 2-((R)-(3-chloro-2-fluorophenyl)((3R)-1-((S)-1-(methylamino)-3-(oxepan-4-yl)propan-2-ylcarbamoyl)piperidin-3-yl)methoxy)ethylcarbamate] | < 10 |
| CNC[C@H](CC1CCCCC1)NC(=O)N1CCC[C@@H]([C@@H](OCCNC(=O)OC)c2ccc(F)c(Cl)c2)C1 [I*-118a, methyl 2-((R)-(3-chloro-4-fluorophenyl)((R)-1-((S)-1-cyclohexyl-3-(methylamino)propan-2-ylcarbamoyl)piperidin-3-yl)methoxy)ethylcarbamate] | < 1 |
| CC[C@@H](NC)[C@H](CC1CCCCC1)NC(=O)N1CCC[C@@H]([C@@H](OCCNC(=O)OC)c2cccc(Cl)c2)C1 [I*-130a, methyl 2-((R)-(3-chlorophenyl)((R)-1-((2S,3R)-1-cyclohexyl-3-(methylamino)pentan-2-ylcarbamoyl)piperidin-3-yl)methoxy)ethylcarbamate] | < 20 |
| CNC[C@H](C[C@H]1CCC(C)(C)OC1)NC(=O)N1CCC[C@@H]([C@@H](OCCNC(=O)OC)c2cccc(Cl)c2)C1 [I*-157a, methyl 2-((R)-(3-chlorophenyl)((R)-1-((S)-1-((R)-6,6-dimethyl-tetrahydro-2H-pyran-3-yl)-3-(methylamino)propan-2-ylcarbamoyl)piperidin-3-yl)methoxy)ethylcarbamate] | < 10 |
| CNC[C@H](CC1CCOCC1)NC(=O)N1CCC[C@@H]([C@@H](OCCNC(=O)OC)c2cc(C)ccc2F)C1 [I*-49a, methyl 2-((R)-(2-fluoro-5-methylphenyl)((R)-1-((S)-1-(methylamino)-3-(tetrahydro-2H-pyran-4-yl)propan-2-ylcarbamoyl)piperidin-3-yl)methoxy)ethylcarbamate] | > 50 |
| CNCC(CC12CCC(CC1)CC2)NC(=O)N1CCC[C@@H]([C@@H](OCCNC(=O)OC)c2cccc(Cl)c2)C1 (stereo partly drawn) [I*-129a, methyl 2-((R)-((3R)-1-(1-(bicyclo[2.2.2]octan-1-yl)-3-(methylamino)propan-2-ylcarbamoyl)piperidin-3-yl)(3-chlorophenyl)methoxy)ethylcarbamate] | > 50 |
| CNC[C@H](CC1CCOCC1)NC(=O)N1CCC[C@@H]([C@@H](OCCNC(=O)OC)c2cc(C)cc(F)c2)C1 [I*-52a, methyl 2-((R)-(3-fluoro-5-methylphenyl)((R)-1-((S)-1-(methylamino)-3-(tetrahydro-2H-pyran-4-yl)propan-2-ylcarbamoyl)piperidin-3-yl)methoxy)ethylcarbamate] | < 10 |
| CNC[C@H](CC12CC3CC(CC1C3)C2)NC(=O)N1CCC[C@@H]([C@@H](OCCNC(=O)OC)c2ccccc2)C1 [I*-74a, methyl 2-((R)-((3R)-1-((S)-1-(3-noradamantyl)-3-(methylamino)propan-2-ylcarbamoyl)piperidin-3-yl)(phenyl)methoxy)ethylcarbamate] | < 20 |
| CNC[C@H](CC1CCC(F)(F)CC1)NC(=O)N1CCC[C@@H]([C@@H](OCCNC(=O)OC)c2cccc(Cl)c2)C1 [I*-146a, methyl 2-((R)-(3-chlorophenyl)((R)-1-((S)-1-(4,4-difluorocyclohexyl)-3-(methylamino)propan-2-ylcarbamoyl)piperidin-3-yl)methoxy)ethylcarbamate] | < 1 |
| CNC[C@H](CC1CCCCC1)NC(=O)N1CCC[C@@H]([C@@H](OCCNC(=O)OC)c2cc(F)c(F)c(F)c2)C1 [I*-119a, methyl 2-((R)-((R)-1-((S)-1-cyclohexyl-3-(methylamino)propan-2-ylcarbamoyl)piperidin-3-yl)(3,4,5-trifluorophenyl)methoxy)ethylcarbamate] | < 10 |
| CNC[C@H](C[C@H]1CCCCOC1)NC(=O)N1CCC[C@@H]([C@@H](OCCNC(=O)OC)c2cc(F)cc(Cl)c2)C1 [I*-141a, methyl 2-((R)-(3-chloro-5-fluorophenyl)((R)-1-((S)-1-(methylamino)-3-((R)-oxepan-3-yl)propan-2-ylcarbamoyl)piperidin-3-yl)methoxy)ethylcarbamate] | < 1 |
| COC(=O)NCCO[C@@H](c1cccc(F)c1)[C@@H]1CCCN(C(=O)NC[C@@H](N)C[C@H]2CCCCOC2)C1 [I*-28a, methyl 2-((R)-((R)-1-((S)-2-amino-3-((R)-oxepan-3-yl)propylcarbamoyl)piperidin-3-yl)(3-fluorophenyl)methoxy)ethylcarbamate] | < 10 |
| CN[C@H](C)[C@H](CC1CCCCC1)NC(=O)N1CCC[C@@H]([C@@H](OCCNC(=O)OC)c2cccc(Cl)c2)C1 [I*-82a, methyl 2-((R)-(3-chlorophenyl)((R)-1-((2S,3R)-1-cyclohexyl-3-(methylamino)butan-2-ylcarbamoyl)piperidin-3-yl)methoxy)ethylcarbamate] | < 1 |
| CNC[C@@H](NC(=O)N1CCC[C@@H]([C@@H](OCCNC(=O)OC)c2cc(F)cc(F)c2)C1)[C@@H](O)C1CCCCC1 [I*-112a, methyl 2-((R)-((R)-1-((1S,2R)-1-cyclohexyl-1-hydroxy-3-(methylamino)propan-2-ylcarbamoyl)piperidin-3-yl)(3,5-difluorophenyl)methoxy)ethylcarbamate] | < 1 |
| CNC[C@H](CC1CCCCC1)NC(=O)N1CCC[C@@H]([C@@H](OCCNC(=O)OC)c2nccs2)C1 [I*-13a, methyl 2-((R)-((R)-1-((S)-1-cyclohexyl-3-(methylamino)propan-2-ylcarbamoyl)piperidin-3-yl)(thiazol-2-yl)methoxy)ethylcarbamate] | < 20 |
| CNC[C@H](CC1CCCCC1)NC(=O)N1CCC[C@@H]([C@@H](OCCNC(=O)OC)c2cccc(C)c2)C1 [I*-18a, methyl 2-((R)-((R)-1-((S)-1-cyclohexyl-3-(methylamino)propan-2-ylcarbamoyl)piperidin-3-yl)(m-tolyl)methoxy)ethylcarbamate] | < 1 |
| CNC[C@H](CC1CCCCC1)NC(=O)N1CCCC[C@@H]([C@H](OCCNC(=O)OC)c2cccc(Cl)c2)C1 [I*-92a, methyl 2-((S)-(3-chlorophenyl)((R)-1-((S)-1-cyclohexyl-3-(methylamino)propan-2-ylcarbamoyl)azepan-3-yl)methoxy)ethylcarbamate] | > 50 |
| CNC[C@H](CC1CCCCC1)NC(=O)N1CCC[C@@H]([C@@H](OCC(C)NC(=O)OC)c2cccc(Cl)c2)C1 (some centres unmarked) [I*-87a] | < 50 |
| CNC[C@H](CC1CCOCC1)NC(=O)N1CCCC([C@@H](OCCNC(=O)OC)c2c(C)ccc(F)c2F)C1 (stereo partly drawn) [I*-115a, methyl 2-((R)-(2,3-difluoro-6-methylphenyl)(1-((S)-1-(methylamino)-3-(tetrahydro-2H-pyran-4-yl)propan-2-ylcarbamoyl)piperidin-3-yl)methoxy)ethylcarbamate] | < 10 |
| CNC[C@H](CCC1(OC)CCCC1)NC(=O)N1CCC[C@@H]([C@@H](OCCNC(=O)OC)c2cc(F)cc(F)c2)C1 [I*-134a, methyl 2-((R)-(3,5-difluorophenyl)((R)-1-((S)-4-(1-methoxycyclopentyl)-1-(methylamino)butan-2-ylcarbamoyl)piperidin-3-yl)methoxy)ethylcarbamate] | > 50 |

Source: patent publication US8487108B2, “Piperidinyl carbamate intermediates for the synthesis of aspartic protease inhibitors” (Vitae Pharmaceuticals, Inc., priority 2005, dated 2013)
